Test results taken from PMC4476799, “Englerin A Agonizes the TRPC4/C5 Cation Channels to Inhibit Tumor Cell Line Proliferation” (PLoS ONE, 2015).
pEC50, pIC50: −log10 of the molar value. Read-outs that look alike come from different tables or passages of the source.

Test system: cancer cell lines from the cancer cell line encyclopedia (CCLE)
Assay: Cell line profiling (CLiP) proliferation experiment
Type: cell-based
Settings: Homo sapiens; for pIC50: read-out: Crossing Point; for pEC50: read-out: Inflection Point
Protocol: Compound profiling experiment and data analysis was performed as previously described. Data was imported and plotted using the Tibco Spotfire DXP application. Lines were categorized as sensitive, intermediate and refractory as follows: Amax<-40 & Inflection Point <2 ~ Sensitive, Amax>-20 & Inflection Point >10 ~ Refractory, all else were called Intermediate. Cancer Cell line HG-U133 Plus 2 data was processed and normalized as described. […] Five sets of refractory cell lines were generated from the pool of refractory cell lines trying to match the lineage composition of the set of sensitive cell lines. The limma package was used as previously described to perform the statistical comparison.

[1] = SNU1, cell line SNU-1, stomach, undifferentiated_adenocarcinoma
[2] = SNU-16, cell line SNU-16, stomach, undifferentiated_adenocarcinoma
[3] = SNU-475, cell line SNU-475, liver, hepatocellular_carcinoma
[4] = SNU-C1, SNU-C1 (large_intestine, adenocarcinoma)
[5] = ST486, ST486 (haematopoietic_and_lymphoid_tissue, Burkitt_lymphoma)
[6] = SU-DHL-4, SU-DHL-4 (haematopoietic_and_lymphoid_tissue, diffuse_large_B_cell_lymphoma)
[7] = SU-DHL-5, SU-DHL-5 (haematopoietic_and_lymphoid_tissue, diffuse_large_B_cell_lymphoma)
[8] = SU-DHL-8, SU-DHL-8 (haematopoietic_and_lymphoid_tissue, diffuse_large_B_cell_lymphoma)
[9] = SW48, SW48 (large_intestine, adenocarcinoma)
[10] = SW480, SW480 (large_intestine, adenocarcinoma)
[11] = SW1088, SW 1088 (central_nervous_system, NS)
[12] = SW1417, SW1417 (large_intestine, adenocarcinoma)
[13] = SW-620, SW620 (large_intestine, adenocarcinoma)
[14] = TE-11, TE-11 (oesophagus, squamous_cell_carcinoma)
[15] = TE-15, TE-15 (oesophagus, squamous_cell_carcinoma)
[16] = TOV112D, TOV-112D (ovary, endometrioid_carcinoma)
[17] = WSUDLCL2, WSU-DLCL2 cell line, haematopoietic_and_lymphoid_tissue, diffuse_large_B_cell_lymphoma
[18] = ZR-75-1, ZR-75-1 cell line, breast, ductal_carcinoma

SMILES: CC(C)[C@@]12C[C@@H](O)[C@@](C)(O1)[C@@H]1CC[C@@H](C)[C@H]1[C@@H]2OC(=O)/C=C/c1ccccc1 [Englerin B]
- pIC50 [1]: < 4.52
- pEC50 [1]: 4.92
- pEC50 (SNU-16, SNU-16 cells): 4.87
- pIC50 [2]: 4.85
- pEC50 [2]: 4.87
- pIC50 (SNU-182, SNU-182 (liver)): < 4.52
- pIC50 (SNU-182, cell line SNU-182, liver, hepatocellular_carcinoma): < 4.52
- pIC50 (SNU-449, SNU-449 (liver)): 4.72
- pIC50 (SNU-449, cell line SNU-449, liver, hepatocellular_carcinoma): 4.72
- pIC50 (SNU-475, cell line SNU-475 (liver, hepatocellular_carcinoma)): < 4.52
- pIC50 [3]: < 4.52
- pEC50 [3]: 4.89
- pIC50 [4]: < 4.52
- pEC50 [4]: 4.83
- pIC50 (SNU-C1, SNU-C1 cells): < 4.52
- pEC50 (SNU-C1, SNU-C1 cells): 4.83
- pIC50 [5]: 4.87
- pEC50 [5]: 4.87
- pIC50 (SU-DHL10, SU-DHL-10 (haematopoietic_and_lymphoid_tissue, diffuse_large_B_cell_lymphoma)): 4.73
- pIC50 [6]: 4.69
- pEC50 [6]: 4.69
- pIC50 [7]: 4.83
- pEC50 [7]: 4.83
- pIC50 [8]: 4.84
- pEC50 [8]: 4.88
- pIC50 [9]: 4.54
- pEC50 [9]: 4.54
- pIC50 (SW480, SW480 (large_intestine)): < 4.52
- pIC50 [10]: < 4.52
- pEC50 [10]: 5.05
- pIC50 (SW837, SW837 (large_intestine)): < 4.52
- pIC50 (SW837, SW837 (large_intestine, adenocarcinoma)): < 4.52
- pIC50 (SW948, SW948 (large_intestine)): < 4.52
- pIC50 (SW948, SW948 (large_intestine, adenocarcinoma)): < 4.52
- pIC50 (SW1088, SW 1088 (central_nervous_system)): < 4.52
- pIC50 [11]: < 4.52
- pEC50 [11]: 5.62
- pIC50 (SW1353, SW 1353 (bone)): < 4.52
- pIC50 (SW1353, SW 1353 (bone, NS)): < 4.52
- pEC50 (SW1353, SW 1353 (bone, NS)): 4.82
- pIC50 [12]: 4.58
- pEC50 [12]: 4.58
- pIC50 (SW1573, SW 1573 (lung)): < 4.52
- pIC50 (SW1573, SW 1573 (lung, squamous_cell_carcinoma)): < 4.52
- pIC50 (SW1783, SW 1783 (central_nervous_system, astrocytoma_Grade_III)): < 4.52
- pIC50 (SW1783, cell line SW 1783 (central_nervous_system, astrocytoma_Grade_III)): < 4.52
- pIC50 (SW1990, SW 1990 (pancreas)): < 4.52
- pIC50 (SW1990, SW 1990 (pancreas, ductal_carcinoma)): < 4.52
- pIC50 [13]: 4.89
- pEC50 [13]: 4.92
- pIC50 (T47D, T-47D (breast)): < 4.52
- pIC50 (T47D, T-47D (breast, ductal_carcinoma)): < 4.52
- pIC50 (T98G, T98G (central_nervous_system)): < 4.52
- pIC50 (T98G, T98G (central_nervous_system, astrocytoma_Grade_IV)): < 4.52
- pIC50 (TE-10, TE-10 (oesophagus)): < 4.52
- pIC50 (TE-10, TE-10 (oesophagus, squamous_cell_carcinoma)): < 4.52
- pIC50 (TE-11, TE-11 (oesophagus)): 4.86
- pIC50 [14]: 4.86
- pEC50 [14]: 4.87
- pIC50 [15]: 4.58
- pEC50 [15]: 4.58
- pIC50 (THP-1, THP-1 (haematopoietic_and_lymphoid_tissue, acute_myeloid_leukaemia)): 4.75
- pIC50 (TOV21G, TOV-21G (ovary, clear_cell_carcinoma)): 4.66
- pIC50 [16]: 4.71
- pEC50 [16]: 4.67
- pIC50 (U-118-MG, U-118 MG (central_nervous_system, astrocytoma)): < 4.52
- pIC50 (U-118-MG, cell line U-118 MG): < 4.52
- pIC50 (U-251, U-251 MG (central_nervous_system)): < 4.52
- pIC50 (U-251, U-251 MG (central_nervous_system, astrocytoma)): < 4.52
- pIC50 (U-937, U-937 (haematopoietic_and_lymphoid_tissue, malignant_histiocytosis)): 4.84
- pIC50 (UACC-62, UACC-62 (skin)): < 4.52
- pIC50 (UACC-62, UACC-62 cell line, skin, NS): < 4.52
- pIC50 (UACC-257, UACC-257 (skin, NS)): 4.70
- pIC50 (UMUC3, UM-UC-3 cell line, urinary_tract, transitional_cell_carcinoma): 4.59
- pIC50 (VM-CUB-1, VM-CUB1 cell line, urinary_tract, transitional_cell_carcinoma): 4.72
- pIC50 (WM 266-4, WM-266-4 (skin)): < 4.52
- pIC50 (WM 266-4, WM-266-4 cell line, skin, NS): < 4.52
- pIC50 (WM793, WM-793 (skin)): < 4.52
- pIC50 (WM793, WM-793 cell line, skin, NS): < 4.52
- pIC50 (WM-115, WM-115 (skin)): < 4.52
- pIC50 (WM-115, WM-115 cell line, skin, NS): < 4.52
- pIC50 [17]: 4.85
- pEC50 [17]: 4.85
- pIC50 (YAPC, YAPC (pancreas)): < 4.52
- pIC50 (YAPC, YAPC cell line, pancreas, NS): < 4.52
- pIC50 (YKG-1, YKG1 (central_nervous_system)): < 4.52
- pIC50 (YKG-1, YKG1 cell line, central_nervous_system, astrocytoma_Grade_IV): < 4.52
- pIC50 (Z-138, Z-138 (haematopoietic_and_lymphoid_tissue)): 4.82
- pIC50 (Z-138, Z-138 cell line, haematopoietic_and_lymphoid_tissue, mantle_cell_lymphoma): 4.82
- pIC50 [18]: 4.68
- pEC50 [18]: 4.89
- pIC50 (ZR-75-30, ZR-75-30 (breast)): < 4.52
